US20070087988A1, “Hematopoietic progenitor kinase 1 for modulation of an immune response” (New York University, priority 2005, published 2007)

Key:
CD4+ T cells = experiment: Intracellular IL-2 staining of CD4+ T cells (FACS); assay type: cell-based, mouse
Procedure: Purified naïve wild type and HPK1^−/− splenocytes were expanded with 10 μg/ml ConA for three days with or without 10 nM PGE2. 10^6 cells were seeded onto a 96-well plate and cells were either left unstimulated or were stimulated with 1 μg/ml anti-CD3 and anti-CD28 for 6 hours in the presence of GolgiStop™ (BD Pharmingen). Cells were washed with buffer containing 0.1% saponin and 0.1% BSA followed by incubation with anti-IL-2-PE for 30 min. IL-2 levels were read by flow cytometry using FACSCalibur™.
RBC-lysed wild type and HPK1^−/− splenocytes were stimulated with or without 1 nM PGE2 and 2 μg/ml anti-CD3 plus 1 μg/ml anti-CD28 for 48 hours in the presence of GolgiStop™ (BD Pharmingen) for the last five hours of culture. For profiling experiments, RBC-lysed splenocytes were stimulated with anti-CD3 and anti-CD28 for 24 hours, and GolgiStop was added in the last five hours. Cells were then fixed with 2% paraformaldehyde followed by permeabilization with a buffer containing 0.1% saponin and 0.1% BSA and the different conjugated antibodies for 30 min. Cytokine levels were read by flow cytometry using FACSCalibur™ and analyzed using Flowjo software.

EP4 receptor = EP4 receptor (Homo sapiens, UniProt P35408); experiment: IVK assay of HA-HPK1 from 293-EP4 transfectants; details: PGE2 stimulation
Chain of EP4 receptor (P35408 whole entry): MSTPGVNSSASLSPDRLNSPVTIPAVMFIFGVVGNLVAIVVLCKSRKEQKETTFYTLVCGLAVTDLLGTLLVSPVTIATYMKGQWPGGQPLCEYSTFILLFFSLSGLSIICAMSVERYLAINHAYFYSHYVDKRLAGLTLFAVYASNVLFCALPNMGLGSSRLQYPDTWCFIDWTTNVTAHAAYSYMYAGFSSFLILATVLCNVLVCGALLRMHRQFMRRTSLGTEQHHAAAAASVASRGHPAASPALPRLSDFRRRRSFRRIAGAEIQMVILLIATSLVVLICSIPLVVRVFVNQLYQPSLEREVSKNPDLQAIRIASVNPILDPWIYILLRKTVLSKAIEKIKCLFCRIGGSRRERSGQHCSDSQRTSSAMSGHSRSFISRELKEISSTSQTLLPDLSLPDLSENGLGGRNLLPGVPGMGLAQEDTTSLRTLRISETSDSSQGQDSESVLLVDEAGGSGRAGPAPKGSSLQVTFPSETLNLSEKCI

T cells [1] = experiment: Mixed leukocyte reaction (MLR) T cell proliferation, 3H-thymidine; assay type: cell-based, mouse; details: MLR with LPS-matured BMDCs, addition of PGE2
Procedure: MLR was performed as described in Sallusto et al. (1994, J. Exp. Med. 179:1009-1118) with minor modifications. Naïve T cells from an allogeneic SJL mouse were purified using CD62L magnetic beads (Milentyi Biotech, Inc., CA). In a 96-well round bottom plate, T cells (1×10^5) were used as responders and incubated with HPK1^−/− and wild type, immature or LPS-matured bone marrow derived dendritic cells (BMDCs) as stimulators. Naïve T cells plus 10 μg/ml ConA were used as a positive control.
In these experiments, T cells were purified and subjected to a mixed leukocyte reaction (MLR) with wild type allogeneic BMDCs in the presence or absence of PGE2. […] To assess this, the same study was repeated under conditions where the magnitude of the MLR response was similar in the two cell types by manipulating the T cell to DC ratio. […] Similar resistance to PGE2 was observed when HPK1^−/− T cells were stimulated by T cell receptor activation with anti-CD3- and anti-CD28-mediated crosslinking in the presence of PGE2 (FIG. 20B).

[2] = system: wild type HEK 293-EBNA cell line; experiment: IVK assay of HA-HPK1 from wild type HEK 293-EBNA cells (no EP2/EP4); assay type: cell-based, human; details: absence of EP2 and EP4 receptor, PGE2 stimulation
HPK1 = experiment: Western blot of immunoprecipitated HPK1 with anti-phosphorylated PKA substrate antibody; assay type: cell-based, human; details: Jurkat T cells stimulated with PGE2 for 10 min
Procedure: The primary sequence of HPK1 was examined for the preferred PKA phosphorylation site on HPK1. Within the activation loop of HPK1, there exists a perfect PKA phosphorylation site at serine 171 (FIG. 12A). This serine is conserved in all members of the KHS subfamily of STE20 kinases. To determine whether PKA can directly phosphorylate HPK1 upon stimulation by PGE2, experiments were conducted using an anti-phospho PKA substrate antibody that recognizes the arginine-based motif that is present at sites that are phosphorylated by PKA (FIG. 12A).
In these experiments, Jurkat T cells were stimulated with PGE2 for 10 min., lysed, and immunoprecipitated HPK1 was subjected to Western blot analysis using anti-phosphorylated PKA substrate antibody. […] Similarly, the antibody also recognized HPK1 immunoprecipitated from cells that were treated with anti-CD3 (FIG. 12B, lane 2).

T cells [3] = experiment: FACS of TCR-stimulated T cells: Foxp3 expression and side-scatter profile; assay type: cell-based, mouse
From the text: This is due in part to the fact that HPK^−/− T cells produce more IL-2. However, other factors may play a role in the increased percentage of cells expressing CD25. To determine whether regulatory T cell (Treg) transcription factor, Foxp3, was a factor, the expression of […] in HPK^−/− cells was examined in this population. It has been shown that PGE2 induces the expression of Foxp3 in both human and mouse T cells. Because of the inhibitory nature of these T cell subsets, there was a question of whether the conditions of stimulation generated fewer Tregs in the HPK1^−/− culture, as this might explain the enhanced functionality of these T cells.
However, a decrease was detected in the number of cells in the side-scatter profile of wild type T cells exposed to PGE2, indicating a decrease in cell viability. […] Indeed, when these cells were stained for annexin V to determine the amount of apoptosis, PGE2 did increase the number of wild type cells undergoing apoptosis by over 75%, compared to 47% in cells not treated with PGE2.

T cells [4] = experiment: IL-2 production by ELISA of T cell supernatants; assay type: cell-based, mouse
Procedure: Supernatants from the proliferation assay were collected for ELISA prior to addition of ^3H-thymidine. The protocol used for ELISA followed the instructions from BD Pharmingen.
Supernatants from the proliferation assay were collected for ELISA prior to addition of ^3H thymidine. For profiling experiments, supernatants were collected as above, with variable time points. […] Cells were then washed with PBS, re-seeded in fresh medium and stimulated with 2 μg/ml plate bound anti-CD3 and 1 μg/ml soluble anti-CD28 for eight hours and supernatants were collected for analysis. Protocol used for ELISA follows BD Pharmingen instructions.

[5] = Example 4, 10 nM PGE2, restimulated anti-CD3/anti-CD28
[6] = Example 4, ELISA, addition of PGE2
[7] = Example 7, 3 day TCR stimulated cells, ELISA, 1 nM PGE2

CCCCC[C@H](O)/C=C/[C@H]1[C@H](O)CC(=O)[C@@H]1C/C=C\CCCC(=O)O [PGE2, prostaglandin E2]
CD4+ HPK1−/− cells still producing IL-2 after PGE2 addition (CD4+ T cells; [5]): over 45% | wild type cells producing IL-2 after PGE2 addition (CD4+ T cells; [5]): less than 10% | CD4+ HPK1−/− T cells still producing IL-2 after co-culture with PGE2 (CD4+ T cells; Example 7, 1 nM PGE2, 48 hours): over 22% | wild type cells producing IL-2 after co-culture with PGE2 (CD4+ T cells; Example 7, 1 nM PGE2, 48 hours): < 5% | HPK1 kinase activity (IVK), 293-EP4 transfectants (EP4 receptor): responded robustly | inhibition of proliferation, HPK1−/− T cells, MLR (T cells [1]): ~25% | inhibition of proliferation, wild type T cells, MLR (T cells [1]): ~90% | HPK1 kinase activity (IVK), wild type HEK 293-EBNA [2]: failed to respond | recognition of HPK1 by anti-phosphorylated PKA substrate antibody (HPK1): recognized the phosphorylated HPK1 | Foxp3 expression (T cells [3]; HPK+/+ or HPK−/− cells, TCR crosslinking 3 days, with versus without PGE2): did not induce a higher Foxp3 expression | number of cells in the side-scatter profile (cell viability), wild type T cells (T cells [3]; exposed to PGE2): decrease | pattern of side-scatter, HPK1−/− T cells (T cells [3]; with or without PGE2): no difference | percentage of IL-2 inhibition, HPK1−/− T cells (T cells [4]; [6]): ~30% | percentage of IL-2 inhibition, wild type T cells (T cells [4]; [6]): ~84% | inhibition of IL-2 production, HPK1−/− T cells (T cells [4]; [7]): ~26% | inhibition of IL-2 production, wild type cells (T cells [4]; [7]): ~88%
